Reference: ChEMBL document CHEMBL4613209, “Quinolone hybrids and their anti-cancer activities: An overview” (Eur J Med Chem, 2019)
≈ marks a conversion by molar mass, not a printed value. Blank lines part the entries; values can stand above or below the compound they belong to.

Tests used:
HepG2 [1] = assay: Anticancer activity against human HepG2 cells by MTT assay; type: functional, cell-based
HT-29 [2] = assay: Anticancer activity against human HT-29 cells by MTT assay; type: functional, cell-based
HL-60 = assay: Anticancer activity against human HL60 cells by MTT assay; type: functional, cell-based
NCI-H460 = assay: Growth inhibition of human NCI-H460 cells; type: functional; conditions: pooled result: one value given for 3 cell lines, strains, targets or settings
PANC-1 = assay: Antiproliferative activity against human PANC1 cells after 48 hrs by MTT assay; type: functional, cell-based; conditions: PANC-1, 48 h
HCT-116 = assay: Antiproliferative activity against human HCT116 cells after 48 hrs by MTT assay; type: functional, cell-based; conditions: HCT-116, 48 h
HeLa [3] = assay: Antiproliferative activity against human HeLa cells after 48 hrs by MTT assay; type: functional, cell-based
A549 [4] = assay: Antiproliferative activity against human A549 cells after 48 hrs by MTT assay; type: functional, cell-based; conditions: A549, 48 h
A549 [5] = assay: Antiproliferative activity against human A549 cells by CCK8 assay; type: functional, cell-based
HepG2 [6] = assay: Antiproliferative activity against human HepG2 cells by CCK8 assay; type: functional, cell-based
MCF7 [7] = assay: Antiproliferative activity against human MCF7 cells by CCK8 assay; type: functional, cell-based
PC-3 = assay: Antiproliferative activity against human PC3 cells by CCK8 assay; type: functional, cell-based
HeLa [8] = assay: Antiproliferative activity against human HeLa cells by CCK8 assay; type: functional, cell-based
MCF-10A = assay: Antiproliferative activity against human MCF10A cells by CCK8 assay; type: cell-based
Histone deacetylase = assay: Inhibition of HDAC (unknown origin); type: protein assay, Homo sapiens
Tubulin = assay: Inhibition of tubulin polymerization (unknown origin); type: protein-complex assay, Homo sapiens
A549 [9] = assay: Cytotoxicity against human A549 cells assessed as reduction in cell viability; type: functional, cell-based
HT-29 [10] = assay: Cytotoxicity against human HT-29 cells assessed as reduction in cell viability; type: functional, cell-based
P388 [11] = assay: Cytotoxicity against mouse P388 cells assessed as reduction in cell viability; type: functional, cell-based
P388 [12] = assay: Cytotoxicity against doxorubicin resistant mouse P388 cells assessed as reduction in cell viability; type: functional, cell-based
B16-F10 [13] = assay: Cytotoxicity against mouse B16F10 cells assessed as reduction in cell viability; type: functional, cell-based
A549 [14] = assay: Anticancer activity against human A549 cells; type: functional, cell-based
HT-29 [15] = assay: Anticancer activity against human HT-29 cells; type: functional, cell-based
HCT-8 = assay: Anticancer activity against human HCT8 cells; type: functional, cell-based
MCF7 [16] = assay: Anticancer activity against human MCF7 cells; type: functional, cell-based
B16-F10 [17] = assay: Anticancer activity against mouse B16F10 cells; type: functional, cell-based
[18] = system: Lewis lung carcinoma cell line; assay: Anticancer activity against mouse LLC cells; type: functional, cell-based
P388 [19] = assay: Anticancer activity against mouse P388 cells; type: functional, cell-based
P388 [20] = assay: Anticancer activity against doxorubicin resistant mouse P388 cells; type: functional, cell-based
[21] = Toxicity in mouse xenografted with human CX-1 cells; conditions: in vivo
[22] = Toxicity in mouse xenografted with human MB-9812 cells

IC50 (HepG2 [1]): 13.1 to 88.4 µM
IC50 (HT-29 [2]): 13.1 to 88.4 µM
IC50 (HL-60): 13.1 to 88.4 µM
SMILES: CCOC(=O)c1cn(Cc2cn(-c3ccc([N+](=O)[O-])cc3)nn2)c2ccc(Cl)cc2c1=O

GI50 (NCI-H460): 27.5 µM
SMILES: O=c1[nH]c2ccccc2c2[nH]c(-c3ccccc3)c(-c3ccccc3)c12

IC50 (PANC-1): > 10 µM
IC50 (HCT-116): > 10 µM
IC50 (HeLa [3]): > 10 µM
IC50 (A549 [4]): > 10 µM
SMILES: O=C(NO)c1cn(C2CC2)c2cc(-n3cc(CN4CCOCC4)nn3)c(F)cc2c1=O

IC50 (PANC-1): > 10 µM
IC50 (HCT-116): > 10 µM
IC50 (HeLa [3]): > 10 µM
IC50 (A549 [4]): > 10 µM
SMILES: CCN(CC)Cc1cn(-c2cc3c(cc2F)c(=O)c(C(=O)NO)cn3C2CC2)nn1

IC50 (A549 [5]): 0.3 to 12.8 µM
IC50 (HepG2 [6]): 0.3 to 12.8 µM
IC50 (MCF7 [7]): 0.3 to 12.8 µM
IC50 (PC-3): 0.3 to 12.8 µM
IC50 (HeLa [8]): 0.3 to 12.8 µM
IC50 (Histone deacetylase): 0.021 to 0.85 µM
IC50 (Tubulin): 1.79 to 6.36 µM
SMILES: C[C@H]1COc2c(N3CCN(C)CC3)c(F)cc3c(=O)c(C(=O)NCc4cn(CCCCCCCC(=O)NO)nn4)cn1c23
IC50 (MCF-10A): > 100 µM

IC50 (PANC-1): > 10 µM
IC50 (HCT-116): > 10 µM
IC50 (HeLa [3]): > 10 µM
IC50 (A549 [4]): > 10 µM
SMILES: CN(C)Cc1cn(-c2cc3c(cc2F)c(=O)c(C(=O)NO)cn3C2CC2)nn1

IC50 (HepG2 [1]): 13.1 to 88.4 µM
IC50 (HT-29 [2]): 13.1 to 88.4 µM
IC50 (HL-60): 13.1 to 88.4 µM
SMILES: CCOC(=O)c1cn(Cc2cn(-c3ccc(Cl)cc3)nn2)c2ccc(C)cc2c1=O

GI50 (NCI-H460): 10.7 to 53.7 µM
SMILES: COc1ccc2[nH]c(=O)c3c4ccccc4oc3c2c1

IC50 (A549 [14]): 0.03 to 0.49 µM
IC50 (HT-29 [15]): 0.03 to 0.49 µM
IC50 (HCT-8): 0.03 to 0.49 µM
IC50 (MCF7 [16]): 0.03 to 0.49 µM
IC50 (B16-F10 [17]): 0.03 to 0.49 µM
IC50 [18]: 0.03 to 0.49 µM
IC50 (P388 [19]): 0.03 to 0.49 µM
IC50 (P388 [20]): 0.03 to 0.49 µM
SMILES: CC(C)(C)c1cccc(NC2CCN(C3C(F)=Cc4c5n(cc(C(=O)O)c4=O)-c4ccccc4OC53)C2)c1 (stereo unspecified)
IC50 (A549 [9]): 0.011 to 0.59 µg/mL (≈ 0.0213 to 1.14 µM)
IC50 (HT-29 [10]): 0.011 to 0.59 µg/mL (≈ 0.0213 to 1.14 µM)
IC50 (P388 [11]): 0.011 to 0.59 µg/mL (≈ 0.0213 to 1.14 µM)
IC50 (P388 [12]): 0.011 to 0.59 µg/mL (≈ 0.0213 to 1.14 µM)
IC50 (B16-F10 [13]): 0.011 to 0.59 µg/mL (≈ 0.0213 to 1.14 µM)

SMILES: CCC[C@H](N)C(=O)NC1CCN(C2C(F)=Cc3c4n(cc(C(=O)O)c3=O)-c3ccccc3OC42)C1 (stereo partly specified)
IC50 (A549 [9]): 0.01 to 1 µg/mL (≈ 0.0207 to 2.07 µM)
IC50 (HT-29 [10]): 0.01 to 1 µg/mL (≈ 0.0207 to 2.07 µM)
IC50 (P388 [11]): 0.01 to 1 µg/mL (≈ 0.0207 to 2.07 µM)
IC50 (P388 [12]): 0.01 to 1 µg/mL (≈ 0.0207 to 2.07 µM)
IC50 (B16-F10 [13]): 0.01 to 1 µg/mL (≈ 0.0207 to 2.07 µM)
LD50 [21]: 59.6 mg/kg
LD50 [22]: 59.6 mg/kg
IC50 (A549 [14]): 0.03 to 0.49 µM
IC50 (HT-29 [15]): 0.03 to 0.49 µM
IC50 (HCT-8): 0.03 to 0.49 µM
IC50 (MCF7 [16]): 0.03 to 0.49 µM
IC50 (B16-F10 [17]): 0.03 to 0.49 µM
IC50 [18]: 0.03 to 0.49 µM
IC50 (P388 [19]): 0.03 to 0.49 µM
IC50 (P388 [20]): 0.03 to 0.49 µM
